Assay results: patent publication US5843889A, “Glycopeptide antibiotic derivatives” (Eli Lilly and Company, priority 1997, dated 1998)
In brackets after ≈: the same amount, converted by molar mass.

Key:
Assay in all cases: MIC, standard broth micro-dilution assay
Format in all cases: cell-based
[1] = test system: Entercoccus gallinarum 245
Procedure: (§1) The formula I compounds have in vitro and in vivo activity against Gram-positive pathogenic bacteria. The MIC's were determined using a standard broth micro-dilution assay.

[2] = test system: Entercoccus faecalis 2041
Procedure: as §1

Entercoccus faecalis 276 = test system: Entercoccus faecalis 276
Procedure: as §1

MIC [1] [µg/mL] | MIC [2] [µg/mL] | MIC (Entercoccus faecalis 276) [µg/mL] | Structure (SMILES)
16 (≈ 9.01 µM) | ≤ 0.06 | ≤ 0.06 | CNC(CC(C)C)C(=O)NC1C(=O)NC(CC(N)=O)C(=O)NC2C(=O)NC3C(=O)NC(C(=O)NC(C(=O)O)c4cc(O)cc(O)c4-c4cc3ccc4O)C(OC3CC(C)(N)C(O)C(C)O3)c3ccc(c(Cl)c3)Oc3cc2cc(c3OC2OC(CO)C(O)C(O)C2OC2CC(C)(NCc3ccc(OS(C)(=O)=O)cc3)C(O)C(C)O2)Oc2ccc(cc2Cl)C1O (stereo not drawn) [Compound 149, 4-methylsulfonyloxybenzyl]
4 (≈ 2.29 µM) | ≤ 0.06 | ≤ 0.06 | CNC(CC(C)C)C(=O)NC1C(=O)NC(CC(N)=O)C(=O)NC2C(=O)NC3C(=O)NC(C(=O)NC(C(=O)O)c4cc(O)cc(O)c4-c4cc3ccc4O)C(OC3CC(C)(N)C(O)C(C)O3)c3ccc(c(Cl)c3)Oc3cc2cc(c3OC2OC(CO)C(O)C(O)C2OC2CC(C)(NCc3ccc(OC(F)F)cc3)C(O)C(C)O2)Oc2ccc(cc2Cl)C1O (stereo not drawn) [Compound 72, 4-difluormethoxybenzyl]
1 (≈ 0.562 µM) | ≤ 0.06 | 0.5 (≈ 0.281 µM) | CNC(CC(C)C)C(=O)NC1C(=O)NC(CC(N)=O)C(=O)NC2C(=O)NC3C(=O)NC(C(=O)NC(C(=O)O)c4cc(O)cc(O)c4-c4cc3ccc4O)C(OC3CC(C)(N)C(O)C(C)O3)c3ccc(c(Cl)c3)Oc3cc2cc(c3OC2OC(CO)C(O)C(O)C2OC2CC(C)(NCc3cccc(OC4CCCCC4)c3)C(O)C(C)O2)Oc2ccc(cc2Cl)C1O (stereo not drawn) [Compound 153]
8 (≈ 4.7 µM) | ≤ 0.06 | ≤ 0.06 | CNC(CC(C)C)C(=O)NC1C(=O)NC(CC(N)=O)C(=O)NC2C(=O)NC3C(=O)NC(C(=O)NC(C(=O)O)c4cc(O)cc(O)c4-c4cc3ccc4O)C(OC3CC(C)(N)C(O)C(C)O3)c3ccc(c(Cl)c3)Oc3cc2cc(c3OC2OC(CO)C(O)C(O)C2OC2CC(C)(NCc3cc(C)cs3)C(O)C(C)O2)Oc2ccc(cc2Cl)C1O (stereo not drawn) [Compound 66, 3-methyl-5-thienylmethyl]
≤ 0.06 | ≤ 0.06 | ≤ 0.06 | CNC(CC(C)C)C(=O)NC1C(=O)NC(CC(N)=O)C(=O)NC2C(=O)NC3C(=O)NC(C(=O)NC(C(=O)O)c4cc(O)cc(O)c4-c4cc3ccc4O)C(OC3CC(C)(N)C(O)C(C)O3)c3ccc(c(Cl)c3)Oc3cc2cc(c3OC2OC(CO)C(O)C(O)C2OC2CC(C)(NCc3cc(C)cc(C)c3)C(O)C(C)O2)Oc2ccc(cc2Cl)C1O (stereo not drawn) [Compound 89, 3,5-dimethylbenzyl]
 | ≤ 0.06 | 0.5 (≈ 0.293 µM) | CNC(CC(C)C)C(=O)NC1C(=O)NC(CC(N)=O)C(=O)NC2C(=O)NC3C(=O)NC(C(=O)NC(C(=O)O)c4cc(O)cc(O)c4-c4cc3ccc4O)C(OC3CC(C)(N)C(O)C(C)O3)c3ccc(c(Cl)c3)Oc3cc2cc(c3OC2OC(CO)C(O)C(O)C2OC2CC(C)(NCC=Cc3ccccc3)C(O)C(C)O2)Oc2ccc(cc2Cl)C1O (stereo not drawn) [Compound 38, trans-cinnamyl]
1 (≈ 0.56 µM) |  | 1 (≈ 0.56 µM) | CNC(CC(C)C)C(=O)NC1C(=O)NC(CC(N)=O)C(=O)NC2C(=O)NC3C(=O)NC(C(=O)NC(C(=O)O)c4cc(O)cc(O)c4-c4cc3ccc4O)C(OC3CC(C)(N)C(O)C(C)O3)c3ccc(c(Cl)c3)Oc3cc2cc(c3OC2OC(CO)C(O)C(O)C2OC2CC(C)(NCc3ccc(-c4ccccc4C)c(C)c3)C(O)C(C)O2)Oc2ccc(cc2Cl)C1O (stereo not drawn) [Compound 237, 4-[2-methylphenyl]-3-methylbenzyl]
8 (≈ 4.44 µM) |  | 0.5 (≈ 0.277 µM) | CNC(CC(C)C)C(=O)NC1C(=O)NC(CC(N)=O)C(=O)NC2C(=O)NC3C(=O)NC(C(=O)NC(C(=O)O)c4cc(O)cc(O)c4-c4cc3ccc4O)C(OC3CC(C)(N)C(O)C(C)O3)c3ccc(c(Cl)c3)Oc3cc2cc(c3OC2OC(CO)C(O)C(O)C2OC2CC(C)(NCCc3cccc(OCc4ccccc4)c3)C(O)C(C)O2)Oc2ccc(cc2Cl)C1O (stereo not drawn) [Compound 69, 3-benzyloxyphenethyl]
≤ 0.06 |  | ≤ 0.06 | CNC(CC(C)C)C(=O)NC1C(=O)NC(CC(N)=O)C(=O)NC2C(=O)NC3C(=O)NC(C(=O)NC(C(=O)O)c4cc(O)cc(O)c4-c4cc3ccc4O)C(OC3CC(C)(N)C(O)C(C)O3)c3ccc(c(Cl)c3)Oc3cc2cc(c3OC2OC(CO)C(O)C(O)C2OC2CC(C)(NCc3ccc(-c4cccs4)cc3)C(O)C(C)O2)Oc2ccc(cc2Cl)C1O (stereo not drawn) [Compound 218, 4-[2-thienyl]benzyl]
 | 0.5 (≈ 0.29 µM) | ≤ 0.06 | CNC(CC(C)C)C(=O)NC1C(=O)NC(CC(N)=O)C(=O)NC2C(=O)NC3C(=O)NC(C(=O)NC(C(=O)O)c4cc(O)cc(O)c4-c4cc3ccc4O)C(OC3CC(C)(N)C(O)C(C)O3)c3ccc(c(Cl)c3)Oc3cc2cc(c3OC2OC(CO)C(O)C(O)C2OC2CC(C)(NCc3ccc4c(c3)CCO4)C(O)C(C)O2)Oc2ccc(cc2Cl)C1O (stereo not drawn) [Compound 82, S-[2,3-dihydrobenzfuryl]methyl]
 | ≤ 0.06 | ≤ 0.06 | CNC(CC(C)C)C(=O)NC1C(=O)NC(CC(N)=O)C(=O)NC2C(=O)NC3C(=O)NC(C(=O)NC(C(=O)O)c4cc(O)cc(O)c4-c4cc3ccc4O)C(OC3CC(C)(N)C(O)C(C)O3)c3ccc(c(Cl)c3)Oc3cc2cc(c3OC2OC(CO)C(O)C(O)C2OC2CC(C)(NCCc3ccc(Oc4ccccc4)cc3)C(O)C(C)O2)Oc2ccc(cc2Cl)C1O (stereo not drawn) [Compound 33, 4-phenoxyphenethyl]

More lines, now with the values behind:

Structure (SMILES) | MIC [1] [µg/mL] | MIC [2] [µg/mL] | MIC (Entercoccus faecalis 276) [µg/mL]
CNC(CC(C)C)C(=O)NC1C(=O)NC(CC(N)=O)C(=O)NC2C(=O)NC3C(=O)NC(C(=O)NC(C(=O)O)c4cc(O)cc(O)c4-c4cc3ccc4O)C(OC3CC(C)(N)C(O)C(C)O3)c3ccc(c(Cl)c3)Oc3cc2cc(c3OC2OC(CO)C(O)C(O)C2OC2CC(C)(NCCCCCCCCBr)C(O)C(C)O2)Oc2ccc(cc2Cl)C1O (stereo not drawn) [Compound 198, 8-bromooctyl] | 1 (≈ 0.561 µM) | ≤ 0.06 | 0.25 (≈ 0.14 µM)
CNC(CC(C)C)C(=O)NC1C(=O)NC(CC(N)=O)C(=O)NC2C(=O)NC3C(=O)NC(C(=O)NC(C(=O)O)c4cc(O)cc(O)c4-c4cc3ccc4O)C(OC3CC(C)(N)C(O)C(C)O3)c3ccc(c(Cl)c3)Oc3cc2cc(c3OC2OC(CO)C(O)C(O)C2OC2CC(C)(NCc3ccc(-c4ccc(C#N)cc4)cc3)C(O)C(C)O2)Oc2ccc(cc2Cl)C1O (stereo not drawn) [Compound 231, 4-[4-cyanophenyl]benzyl] | 0.5 (≈ 0.28 µM) | ≤ 0.06 | ≤ 0.06
CNC(CC(C)C)C(=O)NC1C(=O)NC(CC(N)=O)C(=O)NC2C(=O)NC3C(=O)NC(C(=O)NC(C(=O)O)c4cc(O)cc(O)c4-c4cc3ccc4O)C(OC3CC(C)(N)C(O)C(C)O3)c3ccc(c(Cl)c3)Oc3cc2cc(c3OC2OC(CO)C(O)C(O)C2OC2CC(C)(NCc3cccc(Sc4ccc(C(C)(C)C)cc4)c3)C(O)C(C)O2)Oc2ccc(cc2Cl)C1O (stereo not drawn) [Compound 228, 3-[4-t-butyl-phenylthio]benzyl] | 4 (≈ 2.17 µM) | 0.25 (≈ 0.135 µM) | 1 (≈ 0.541 µM)
CNC(CC(C)C)C(=O)NC1C(=O)NC(CC(N)=O)C(=O)NC2C(=O)NC3C(=O)NC(C(=O)NC(C(=O)O)c4cc(O)cc(O)c4-c4cc3ccc4O)C(OC3CC(C)(N)C(O)C(C)O3)c3ccc(c(Cl)c3)Oc3cc2cc(c3OC2OC(CO)C(O)C(O)C2OC2CC(C)(NCc3cccc(Oc4cccc(C(F)(F)F)c4)c3)C(O)C(C)O2)Oc2ccc(cc2Cl)C1O (stereo not drawn) [Compound 203] | 2 (≈ 1.09 µM) | 0.25 (≈ 0.136 µM) | 0.5 (≈ 0.271 µM)
CNC(CC(C)C)C(=O)NC1C(=O)NC(CC(N)=O)C(=O)NC2C(=O)NC3C(=O)NC(C(=O)NC(C(=O)O)c4cc(O)cc(O)c4-c4cc3ccc4O)C(OC3CC(C)(N)C(O)C(C)O3)c3ccc(c(Cl)c3)Oc3cc2cc(c3OC2OC(CO)C(O)C(O)C2OC2CC(C)(NCc3ccc(OS(=O)(=O)c4c(C)c(C)c(C)c(C)c4C)cc3)C(O)C(C)O2)Oc2ccc(cc2Cl)C1O (stereo not drawn) [Compound 173, 4-[[2,3,4,5,6-pentamethyl]phenylsulfonyloxy]benzyl] | 4 (≈ 2.1 µM) | 0.5 (≈ 0.262 µM) | 2 (≈ 1.05 µM)
CCCCCCCCCCC#CCNC1(C)CC(OC2C(Oc3c4cc5cc3Oc3ccc(cc3Cl)C(OC3CC(C)(N)C(O)C(C)O3)C3NC(=O)C(NC(=O)C5NC(=O)C(CC(N)=O)NC(=O)C(NC(=O)C(CC(C)C)NC)C(O)c5ccc(c(Cl)c5)O4)c4ccc(O)c(c4)-c4c(O)cc(O)cc4C(C(=O)O)NC3=O)OC(CO)C(O)C2O)OC(C)C1O (stereo not drawn) [Compound 191, 2-tridecynyl] | 8 (≈ 4.52 µM) | 1 (≈ 0.565 µM) | 4 (≈ 2.26 µM)
CCCCCCCCCOc1ccc(CNC2(C)CC(OC3C(Oc4c5cc6cc4Oc4ccc(cc4Cl)C(OC4CC(C)(N)C(O)C(C)O4)C4NC(=O)C(NC(=O)C6NC(=O)C(CC(N)=O)NC(=O)C(NC(=O)C(CC(C)C)NC)C(O)c6ccc(c(Cl)c6)O5)c5ccc(O)c(c5)-c5c(O)cc(O)cc5C(C(=O)O)NC4=O)OC(CO)C(O)C3O)OC(C)C2O)cc1 (stereo not drawn) [Compound 8, 4-nonyloxybenzyl] | 8 (≈ 4.38 µM) | 4 (≈ 2.19 µM) | 4 (≈ 2.19 µM)
C=CCCCCCCCCNC1(C)CC(OC2C(Oc3c4cc5cc3Oc3ccc(cc3Cl)C(OC3CC(C)(N)C(O)C(C)O3)C3NC(=O)C(NC(=O)C5NC(=O)C(CC(N)=O)NC(=O)C(NC(=O)C(CC(C)C)NC)C(O)c5ccc(c(Cl)c5)O4)c4ccc(O)c(c4)-c4c(O)cc(O)cc4C(C(=O)O)NC3=O)OC(CO)C(O)C2O)OC(C)C1O (stereo not drawn) [Compound 214, 9-decenyl] | 2 (≈ 1.16 µM) |  | 0.25 (≈ 0.144 µM)
CNC(CC(C)C)C(=O)NC1C(=O)NC(CC(N)=O)C(=O)NC2C(=O)NC3C(=O)NC(C(=O)NC(C(=O)O)c4cc(O)cc(O)c4-c4cc3ccc4O)C(OC3CC(C)(N)C(O)C(C)O3)c3ccc(c(Cl)c3)Oc3cc2cc(c3OC2OC(CO)C(O)C(O)C2OC2CC(C)(NCc3ccc(OC(C)=O)cc3)C(O)C(C)O2)Oc2ccc(cc2Cl)C1O (stereo not drawn) [Compound 138, 4-acetoxybenzyl] |  | ≤ 0.06 | ≤ 0.06
CNC(CC(C)C)C(=O)NC1C(=O)NC(CC(N)=O)C(=O)NC2C(=O)NC3C(=O)NC(C(=O)NC(C(=O)O)c4cc(O)cc(O)c4-c4cc3ccc4O)C(O)c3ccc(c(Cl)c3)Oc3cc2cc(c3OC2OC(CO)C(O)C(O)C2OC2CC(C)(NCc3ccc(-c4ccccc4)cc3)C(O)C(C)O2)Oc2ccc(cc2Cl)C1O (stereo not drawn) [Compound 181, 4-phenylbenzyl] | ≤ 0.06 |  | 2 (≈ 1.24 µM)
